According to article PMC3833957, “Macroscopic Kinetics of Pentameric Ligand Gated Ion Channels: Comparisons between Two Prokaryotic Channels and One Eukaryotic Channel” (PLoS ONE, 2013):

Target: T1, ELIC (Dickeya chrysanthemi, UniProt P0C7B7)
T1 sequence (P0C7B7 1-321): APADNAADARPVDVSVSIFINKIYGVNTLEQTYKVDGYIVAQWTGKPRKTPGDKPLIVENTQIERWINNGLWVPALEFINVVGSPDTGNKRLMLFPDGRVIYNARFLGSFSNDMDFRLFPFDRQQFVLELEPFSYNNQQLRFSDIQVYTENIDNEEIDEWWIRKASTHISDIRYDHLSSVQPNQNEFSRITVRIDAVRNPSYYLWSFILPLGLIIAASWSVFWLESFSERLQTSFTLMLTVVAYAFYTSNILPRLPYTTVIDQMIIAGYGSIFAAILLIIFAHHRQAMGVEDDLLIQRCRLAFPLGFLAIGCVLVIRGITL
Experiment: two-electrode voltage clamp in Xenopus oocytes; outside-out patch clamp of HEK-293T cells
Format: cell-based

## NCCS [CA, cysteamine]
  EC50: 10 ± 0.1 mM
